The text below walks through data of ChEMBL document CHEMBL5291721, “A preclinical secondary pharmacology resource illuminates target-adverse drug reaction associations of marketed drugs” (Nat Commun, 2023).

Among the targets are D(1A) dopamine receptor (Homo sapiens, UniProt P21728); Histamine H3 receptor (Homo sapiens, UniProt Q9Y5N1); Mu-type opioid receptor (Homo sapiens, UniProt P35372).
The target in the next experiment is Acetylcholinesterase (Homo sapiens, UniProt P22303). It counts as functional.
The target of another experiment is T1, Adenosine receptor A3 (Homo sapiens, UniProt P0DMS8).
T1 sequence (P0DMS8 whole entry): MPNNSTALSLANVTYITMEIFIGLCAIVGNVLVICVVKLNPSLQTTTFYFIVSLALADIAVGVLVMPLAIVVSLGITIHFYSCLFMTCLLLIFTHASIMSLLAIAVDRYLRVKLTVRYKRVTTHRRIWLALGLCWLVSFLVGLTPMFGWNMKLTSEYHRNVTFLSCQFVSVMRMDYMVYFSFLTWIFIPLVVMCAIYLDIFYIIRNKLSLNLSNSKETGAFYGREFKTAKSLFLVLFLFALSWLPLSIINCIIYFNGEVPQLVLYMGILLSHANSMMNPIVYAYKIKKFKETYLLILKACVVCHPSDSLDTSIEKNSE

In experiment [1] the target is T2, Alpha-1A adrenergic receptor (Homo sapiens, UniProt P35348).
T2 sequence (P35348 whole entry): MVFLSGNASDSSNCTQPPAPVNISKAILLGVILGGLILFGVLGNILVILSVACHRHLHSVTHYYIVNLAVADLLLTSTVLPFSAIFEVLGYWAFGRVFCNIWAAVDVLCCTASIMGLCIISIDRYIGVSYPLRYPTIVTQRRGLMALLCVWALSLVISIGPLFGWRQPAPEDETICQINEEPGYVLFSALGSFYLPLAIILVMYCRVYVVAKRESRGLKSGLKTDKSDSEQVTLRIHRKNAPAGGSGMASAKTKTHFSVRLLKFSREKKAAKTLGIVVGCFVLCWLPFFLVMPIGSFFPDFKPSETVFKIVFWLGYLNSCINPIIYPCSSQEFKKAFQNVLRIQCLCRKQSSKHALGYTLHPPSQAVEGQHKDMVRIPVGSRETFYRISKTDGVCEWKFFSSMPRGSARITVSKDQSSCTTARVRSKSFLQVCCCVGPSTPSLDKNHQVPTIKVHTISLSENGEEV
It counts as functional, cell-based.

Experiment [2] addresses 5-hydroxytryptamine receptor 2B (Homo sapiens, UniProt P41595). It counts as functional, cell-based.
For experiment [3], the target named is Vascular endothelial growth factor receptor 2 (Homo sapiens, UniProt P35968). It counts as functional.
The target of experiment [4] is T3, Amine oxidase [flavin-containing] A (Homo sapiens, UniProt P21397).
T3 sequence (P21397 whole entry): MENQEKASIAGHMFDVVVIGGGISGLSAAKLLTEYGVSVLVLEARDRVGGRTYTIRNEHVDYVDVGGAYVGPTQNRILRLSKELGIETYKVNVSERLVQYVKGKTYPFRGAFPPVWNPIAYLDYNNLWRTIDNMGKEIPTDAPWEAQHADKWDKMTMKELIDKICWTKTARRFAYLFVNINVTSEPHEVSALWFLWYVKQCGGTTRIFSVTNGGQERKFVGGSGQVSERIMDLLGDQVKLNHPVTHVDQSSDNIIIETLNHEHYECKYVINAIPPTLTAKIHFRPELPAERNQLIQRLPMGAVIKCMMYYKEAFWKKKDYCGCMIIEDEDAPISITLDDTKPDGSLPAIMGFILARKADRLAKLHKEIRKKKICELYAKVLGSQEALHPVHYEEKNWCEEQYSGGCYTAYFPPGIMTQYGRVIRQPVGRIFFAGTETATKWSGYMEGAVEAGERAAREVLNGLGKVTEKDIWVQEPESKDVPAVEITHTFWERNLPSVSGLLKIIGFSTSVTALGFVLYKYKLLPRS
It counts as functional.

In experiment [5] the target is cGMP-inhibited 3',5'-cyclic phosphodiesterase 3A (Homo sapiens, UniProt Q14432). Type of experiment: functional.
A further experiment deals with T4, Progesterone receptor (Homo sapiens, UniProt P06401).
T4 sequence (P06401 whole entry): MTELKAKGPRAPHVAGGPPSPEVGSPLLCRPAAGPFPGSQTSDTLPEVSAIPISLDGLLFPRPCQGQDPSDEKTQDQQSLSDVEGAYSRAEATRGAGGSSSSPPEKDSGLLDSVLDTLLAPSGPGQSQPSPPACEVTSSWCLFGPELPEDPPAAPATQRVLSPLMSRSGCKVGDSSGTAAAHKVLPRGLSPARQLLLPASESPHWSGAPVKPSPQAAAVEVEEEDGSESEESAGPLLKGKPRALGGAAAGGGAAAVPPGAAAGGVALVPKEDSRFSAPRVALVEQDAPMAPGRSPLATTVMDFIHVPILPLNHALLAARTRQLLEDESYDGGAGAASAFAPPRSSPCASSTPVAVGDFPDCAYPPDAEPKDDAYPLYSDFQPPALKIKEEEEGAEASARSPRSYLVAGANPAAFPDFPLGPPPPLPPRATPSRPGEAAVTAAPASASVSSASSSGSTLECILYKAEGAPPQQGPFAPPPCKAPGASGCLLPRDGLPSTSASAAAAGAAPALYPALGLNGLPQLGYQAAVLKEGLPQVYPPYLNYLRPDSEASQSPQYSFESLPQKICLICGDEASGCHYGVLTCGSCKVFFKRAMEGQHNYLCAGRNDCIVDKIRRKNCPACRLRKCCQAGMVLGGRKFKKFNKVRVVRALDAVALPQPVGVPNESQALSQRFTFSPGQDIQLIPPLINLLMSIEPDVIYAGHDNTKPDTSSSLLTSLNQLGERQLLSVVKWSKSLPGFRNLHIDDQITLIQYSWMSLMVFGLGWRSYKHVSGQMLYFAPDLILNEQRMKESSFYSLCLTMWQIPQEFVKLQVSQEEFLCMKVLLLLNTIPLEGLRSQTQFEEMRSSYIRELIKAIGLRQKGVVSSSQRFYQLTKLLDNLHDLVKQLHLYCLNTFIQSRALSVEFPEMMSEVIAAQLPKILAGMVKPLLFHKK

Experiment [6] has as its target T5, Prostaglandin G/H synthase 1 (Homo sapiens, UniProt P23219). Type of experiment: functional.
The target in experiment [7] is T5, Prostaglandin G/H synthase 1. It counts as functional. This is another data set of the same source.
Experiment [8] concerns the target Sodium-dependent noradrenaline transporter (Homo sapiens, UniProt P23975).
Experiment [9] addresses Sodium-dependent serotonin transporter (Homo sapiens, UniProt P31645).

In general, AC50 refers to the concentration at which the activity in the assay is half-maximal.

Molecules are shown by their SMILES.
Also: assay procedure not described here.

Chain of D(1A) dopamine receptor (P21728 whole entry): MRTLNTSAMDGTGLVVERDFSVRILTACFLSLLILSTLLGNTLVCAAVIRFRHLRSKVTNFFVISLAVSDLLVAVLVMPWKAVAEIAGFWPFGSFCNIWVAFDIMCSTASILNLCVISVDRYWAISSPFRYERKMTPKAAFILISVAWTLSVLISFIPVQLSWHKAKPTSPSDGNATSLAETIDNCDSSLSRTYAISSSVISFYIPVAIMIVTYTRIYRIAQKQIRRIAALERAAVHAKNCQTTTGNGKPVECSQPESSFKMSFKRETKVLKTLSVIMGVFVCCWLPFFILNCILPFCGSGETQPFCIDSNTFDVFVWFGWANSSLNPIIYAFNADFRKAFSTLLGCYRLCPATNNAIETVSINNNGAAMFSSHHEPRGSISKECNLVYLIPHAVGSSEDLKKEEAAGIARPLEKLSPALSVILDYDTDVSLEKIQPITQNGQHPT
Chain of Histamine H3 receptor (Q9Y5N1 whole entry): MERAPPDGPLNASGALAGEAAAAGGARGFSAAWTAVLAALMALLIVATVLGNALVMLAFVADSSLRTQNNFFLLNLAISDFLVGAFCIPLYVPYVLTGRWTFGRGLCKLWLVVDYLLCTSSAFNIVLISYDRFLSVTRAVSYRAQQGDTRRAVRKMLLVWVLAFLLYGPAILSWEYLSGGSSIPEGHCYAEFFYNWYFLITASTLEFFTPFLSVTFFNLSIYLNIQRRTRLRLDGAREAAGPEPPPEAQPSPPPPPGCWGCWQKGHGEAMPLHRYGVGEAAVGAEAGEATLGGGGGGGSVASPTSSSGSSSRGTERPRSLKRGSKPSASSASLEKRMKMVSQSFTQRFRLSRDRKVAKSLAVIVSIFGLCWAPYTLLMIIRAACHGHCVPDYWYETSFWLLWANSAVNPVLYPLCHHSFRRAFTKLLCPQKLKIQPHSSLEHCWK
Chain of Acetylcholinesterase (P22303 whole entry): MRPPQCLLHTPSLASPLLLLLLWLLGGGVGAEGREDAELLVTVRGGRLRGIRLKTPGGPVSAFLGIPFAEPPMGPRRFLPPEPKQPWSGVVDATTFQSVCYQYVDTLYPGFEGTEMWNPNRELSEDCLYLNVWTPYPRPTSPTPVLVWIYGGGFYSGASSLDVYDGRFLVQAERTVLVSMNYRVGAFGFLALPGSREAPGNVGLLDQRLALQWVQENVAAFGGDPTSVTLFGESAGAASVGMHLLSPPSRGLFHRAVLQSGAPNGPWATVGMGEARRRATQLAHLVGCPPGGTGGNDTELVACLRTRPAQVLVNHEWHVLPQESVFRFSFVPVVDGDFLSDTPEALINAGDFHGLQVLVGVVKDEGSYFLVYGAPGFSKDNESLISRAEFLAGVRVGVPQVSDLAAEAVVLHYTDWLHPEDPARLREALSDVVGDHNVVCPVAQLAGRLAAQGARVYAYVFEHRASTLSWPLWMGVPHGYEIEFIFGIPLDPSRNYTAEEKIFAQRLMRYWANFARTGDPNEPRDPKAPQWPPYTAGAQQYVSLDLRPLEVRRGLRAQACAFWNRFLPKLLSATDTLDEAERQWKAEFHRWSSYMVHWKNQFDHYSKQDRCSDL
Chain of 5-hydroxytryptamine receptor 2B (P41595 whole entry): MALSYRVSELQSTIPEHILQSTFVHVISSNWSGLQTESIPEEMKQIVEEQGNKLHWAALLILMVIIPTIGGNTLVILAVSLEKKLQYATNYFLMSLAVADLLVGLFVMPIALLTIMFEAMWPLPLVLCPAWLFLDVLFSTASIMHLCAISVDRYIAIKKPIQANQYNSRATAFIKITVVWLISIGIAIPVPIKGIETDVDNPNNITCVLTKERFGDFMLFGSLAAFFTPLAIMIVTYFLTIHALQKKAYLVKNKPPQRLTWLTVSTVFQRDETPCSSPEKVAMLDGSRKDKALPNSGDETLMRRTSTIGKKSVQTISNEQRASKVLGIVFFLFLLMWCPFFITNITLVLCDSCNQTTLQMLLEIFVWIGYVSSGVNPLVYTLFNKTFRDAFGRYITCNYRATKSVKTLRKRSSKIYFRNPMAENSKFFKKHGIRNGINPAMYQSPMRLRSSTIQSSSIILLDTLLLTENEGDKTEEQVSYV
Chain of Vascular endothelial growth factor receptor 2 (P35968 whole entry): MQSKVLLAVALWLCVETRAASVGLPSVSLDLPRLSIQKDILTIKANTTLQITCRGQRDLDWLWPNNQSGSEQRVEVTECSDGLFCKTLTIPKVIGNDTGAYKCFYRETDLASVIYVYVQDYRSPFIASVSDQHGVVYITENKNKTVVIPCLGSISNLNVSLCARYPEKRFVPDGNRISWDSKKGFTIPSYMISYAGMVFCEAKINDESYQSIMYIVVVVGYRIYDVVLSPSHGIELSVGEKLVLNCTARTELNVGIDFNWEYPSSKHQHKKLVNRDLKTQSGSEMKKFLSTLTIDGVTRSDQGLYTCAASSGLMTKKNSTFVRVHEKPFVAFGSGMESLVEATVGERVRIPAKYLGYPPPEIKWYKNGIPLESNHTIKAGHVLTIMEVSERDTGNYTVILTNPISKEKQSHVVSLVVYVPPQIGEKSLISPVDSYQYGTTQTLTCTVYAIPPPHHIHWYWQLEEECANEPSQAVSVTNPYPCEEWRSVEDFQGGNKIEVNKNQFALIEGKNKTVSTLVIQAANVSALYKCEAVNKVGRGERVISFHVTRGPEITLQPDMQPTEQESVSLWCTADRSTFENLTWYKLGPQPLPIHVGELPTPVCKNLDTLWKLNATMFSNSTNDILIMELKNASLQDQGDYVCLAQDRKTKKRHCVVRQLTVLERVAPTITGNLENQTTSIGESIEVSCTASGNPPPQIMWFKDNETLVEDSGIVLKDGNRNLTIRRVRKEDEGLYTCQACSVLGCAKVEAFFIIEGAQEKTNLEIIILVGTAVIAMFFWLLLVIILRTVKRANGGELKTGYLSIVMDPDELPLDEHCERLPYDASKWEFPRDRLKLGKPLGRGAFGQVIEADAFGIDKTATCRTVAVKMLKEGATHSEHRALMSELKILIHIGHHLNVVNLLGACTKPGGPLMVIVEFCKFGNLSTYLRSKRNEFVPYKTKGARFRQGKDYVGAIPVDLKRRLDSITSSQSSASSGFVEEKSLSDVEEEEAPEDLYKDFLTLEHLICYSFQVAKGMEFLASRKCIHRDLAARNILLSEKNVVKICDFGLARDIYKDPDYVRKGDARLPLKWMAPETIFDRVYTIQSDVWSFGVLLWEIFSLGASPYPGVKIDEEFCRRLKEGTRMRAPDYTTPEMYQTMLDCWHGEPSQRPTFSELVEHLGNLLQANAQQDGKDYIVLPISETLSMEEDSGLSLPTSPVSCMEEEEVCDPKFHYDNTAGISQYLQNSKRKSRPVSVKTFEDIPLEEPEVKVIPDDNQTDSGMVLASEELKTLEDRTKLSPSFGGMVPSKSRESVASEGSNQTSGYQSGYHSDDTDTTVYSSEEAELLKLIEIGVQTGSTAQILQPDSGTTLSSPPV
Chain of Sodium-dependent noradrenaline transporter (P23975 whole entry): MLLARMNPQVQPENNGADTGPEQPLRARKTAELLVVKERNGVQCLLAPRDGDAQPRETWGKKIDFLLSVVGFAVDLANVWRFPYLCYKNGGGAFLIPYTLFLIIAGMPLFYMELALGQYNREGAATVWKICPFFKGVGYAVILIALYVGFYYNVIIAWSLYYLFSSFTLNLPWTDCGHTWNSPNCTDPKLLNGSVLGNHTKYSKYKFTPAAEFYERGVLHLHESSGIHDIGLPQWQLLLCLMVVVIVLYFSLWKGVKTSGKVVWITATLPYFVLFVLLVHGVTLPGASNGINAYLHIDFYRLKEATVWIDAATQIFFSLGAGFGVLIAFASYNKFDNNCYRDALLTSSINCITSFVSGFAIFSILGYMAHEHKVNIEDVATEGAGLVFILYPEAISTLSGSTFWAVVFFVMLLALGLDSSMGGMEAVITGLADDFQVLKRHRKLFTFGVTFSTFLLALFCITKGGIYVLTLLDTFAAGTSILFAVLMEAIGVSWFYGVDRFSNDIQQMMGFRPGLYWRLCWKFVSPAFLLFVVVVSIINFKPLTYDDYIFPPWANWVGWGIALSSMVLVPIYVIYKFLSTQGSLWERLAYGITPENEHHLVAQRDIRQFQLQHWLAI
Chain of Sodium-dependent serotonin transporter (P31645 whole entry): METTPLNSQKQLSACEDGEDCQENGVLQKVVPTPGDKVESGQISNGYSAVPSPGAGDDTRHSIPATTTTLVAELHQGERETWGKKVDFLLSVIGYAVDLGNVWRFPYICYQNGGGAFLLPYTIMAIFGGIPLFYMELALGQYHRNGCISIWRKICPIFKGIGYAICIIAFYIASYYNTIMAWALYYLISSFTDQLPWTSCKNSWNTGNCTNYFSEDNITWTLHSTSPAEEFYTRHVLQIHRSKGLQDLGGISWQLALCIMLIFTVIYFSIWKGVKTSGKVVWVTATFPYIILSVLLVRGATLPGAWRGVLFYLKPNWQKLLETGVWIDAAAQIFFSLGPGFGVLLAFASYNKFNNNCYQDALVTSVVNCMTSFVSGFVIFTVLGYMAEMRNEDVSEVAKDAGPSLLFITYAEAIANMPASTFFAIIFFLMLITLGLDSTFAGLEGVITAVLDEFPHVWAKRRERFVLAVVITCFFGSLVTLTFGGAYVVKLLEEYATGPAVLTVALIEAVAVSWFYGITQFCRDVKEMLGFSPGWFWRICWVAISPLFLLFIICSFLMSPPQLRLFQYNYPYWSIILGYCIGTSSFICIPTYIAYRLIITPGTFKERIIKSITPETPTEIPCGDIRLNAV
Chain of Mu-type opioid receptor (P35372 whole entry): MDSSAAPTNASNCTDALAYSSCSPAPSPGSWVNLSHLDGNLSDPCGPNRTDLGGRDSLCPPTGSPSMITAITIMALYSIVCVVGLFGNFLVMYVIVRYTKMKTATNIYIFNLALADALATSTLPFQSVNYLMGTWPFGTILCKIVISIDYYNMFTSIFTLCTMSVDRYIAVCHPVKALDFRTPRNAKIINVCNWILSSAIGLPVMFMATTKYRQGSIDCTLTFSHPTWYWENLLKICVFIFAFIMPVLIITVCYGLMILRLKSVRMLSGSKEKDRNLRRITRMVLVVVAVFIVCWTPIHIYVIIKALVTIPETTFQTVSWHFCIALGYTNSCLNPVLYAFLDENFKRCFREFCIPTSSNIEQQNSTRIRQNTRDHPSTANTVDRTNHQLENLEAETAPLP

Consider `CC(C)(C)C(=O)C(Oc1ccc(Cl)cc1)n1ccnc1` (stereo not given) [CLIMBAZOLE], for which the AC50 is above 30 µM on Acetylcholinesterase; 20.2 µM on Adenosine receptor A3; above 30 µM in experiment [1]; above 30 µM on D(1A) dopamine receptor; above 30 µM on Histamine H3 receptor; above 30 µM in experiment [2]. Also, the AC50 (in experiment [3]; in [4]; on Mu-type opioid receptor; in [5]; at Progesterone receptor; in [6]) was above 30 µM each time. Moreover, the AC50 in experiment [7] is above 30 µM; in experiment [8], 20.8 µM; in experiment [9], 29.7 µM.
Take `NC1CCN(c2c(F)cc3c(=O)c(C(=O)O)cn(C4CC4)c3c2Cl)C1` (stereo not given) [CLINAFLOXACIN]: the AC50 (at Acetylcholinesterase; at Adenosine receptor A3; in experiment [1]; on D(1A) dopamine receptor; at Histamine H3 receptor; in [2]) was above 30 µM throughout. The AC50 in experiment [3] is above 30 µM; in experiment [4], above 30 µM; on Mu-type opioid receptor it was 4.91 µM; in experiment [5] it was above 30 µM; on Progesterone receptor, above 30 µM; in experiment [6], above 30 µM. Further, the AC50 in [7], in experiment [8] and in experiment [9] was above 30 µM each time.
Take `CC(C)(C)CC(C)(C)c1ccc(O)c(Cc2ccc(Cl)cc2Cl)c1` [CLOFOCTOL]: the AC50 is above 30 µM on Acetylcholinesterase; 1.12 µM at Adenosine receptor A3; above 30 µM in experiment [1]; 29.7 µM on D(1A) dopamine receptor; above 30 µM on Histamine H3 receptor; above 30 µM in experiment [2]. Moreover, the AC50 was above 30 µM in [3]; above 30 µM in [4]; 22 µM at Mu-type opioid receptor; 5.81 µM in experiment [5]; 1.15 µM on Progesterone receptor; 2.56 µM in [6]. Further, the AC50 in [7] came to 29.2 µM; in experiment [8], 3.4 µM; in [9], 5.43 µM.
For `Clc1ccc(C(OCCN2CCCCC2)c2ccccc2)cc1` (stereo not given) [CLOPERASTINE], the AC50 is above 30 µM on Acetylcholinesterase; above 30 µM on Adenosine receptor A3; above 30 µM in experiment [1]; 5.96 µM at D(1A) dopamine receptor; above 30 µM at Histamine H3 receptor; above 30 µM in [2]. Moreover, the AC50 in experiment [3] is above 30 µM; in [4] it was above 30 µM; at Mu-type opioid receptor, 13.6 µM; in experiment [5], above 30 µM; on Progesterone receptor, above 30 µM; in experiment [6] it was above 30 µM. Besides, the AC50 in experiment [7] is above 30 µM; in [8], 6.39 µM; in [9] it was 15.4 µM.
Consider `CC(=O)OCC(=O)[C@@]1(O)CC[C@H]2[C@@H]3CCC4=CC(=O)C=C[C@]4(C)[C@@]3(Cl)[C@@H](Cl)C[C@@]21C` [DICHLORISONE ACETATE], for which the AC50 (at Acetylcholinesterase; on Adenosine receptor A3; in [1]; at D(1A) dopamine receptor; on Histamine H3 receptor; in experiment [2]) was above 30 µM throughout. Further, the AC50 in experiment [3] is above 30 µM; in experiment [4], above 30 µM; at Mu-type opioid receptor it was above 30 µM; in experiment [5], above 30 µM; at Progesterone receptor, 0.173 µM; in experiment [6], above 30 µM. The AC50 in experiment [7], in experiment [8] and in experiment [9] was above 30 µM each time.
As for `CC(C)C[C@H]1C(=O)N2CCC[C@H]2[C@]2(O)O[C@](NC(=O)[C@@H]3C[C@@H]4c5cccc6[nH]cc(c56)C[C@H]4N(C)C3)(C(C)C)C(=O)N12` [DIHYDROERGOCRYPTINE], the AC50 on Acetylcholinesterase was above 30 µM; at Adenosine receptor A3 it was above 30 µM; in experiment [1], 5.77 µM; at D(1A) dopamine receptor it was 0.597 µM; at Histamine H3 receptor, above 30 µM; in experiment [2], above 30 µM. Also, the AC50 was above 30 µM in [3]; above 30 µM in [4]; 10.3 µM at Mu-type opioid receptor; above 30 µM in experiment [5]; above 30 µM on Progesterone receptor; 18.4 µM in experiment [6]. Moreover, the AC50 in [7] was 27.4 µM; in [8], above 30 µM; in experiment [9], above 30 µM.
`CCN(CC)CCOC(=O)C(c1ccccc1)C1CCCCC1` (stereo not given) [DROFENINE]: the AC50 is above 30 µM at Acetylcholinesterase; above 30 µM at Adenosine receptor A3; above 30 µM in experiment [1]; 13.7 µM at D(1A) dopamine receptor; above 30 µM on Histamine H3 receptor; above 30 µM in experiment [2]. The AC50 in [3] was above 30 µM; in experiment [4], above 30 µM; at Mu-type opioid receptor, 25.3 µM; in experiment [5], above 30 µM; at Progesterone receptor, above 30 µM; in [6], above 30 µM. Moreover, the values for the AC50 in experiment [7], in experiment [8] and in experiment [9] were above 30 µM, 13 µM and above 30 µM, respectively.
Turning to `COc1ccc(C(=O)Nc2ccccc2CCC2CCCCN2C)cc1` (stereo not given) [ENCAINIDE], the AC50 is above 30 µM on Acetylcholinesterase; above 30 µM at Adenosine receptor A3; above 30 µM in experiment [1]; 26.9 µM on D(1A) dopamine receptor; above 30 µM at Histamine H3 receptor; above 30 µM in experiment [2]. The AC50 (in [3]; in experiment [4]; at Mu-type opioid receptor; in experiment [5]; on Progesterone receptor; in experiment [6]) was above 30 µM each time. The AC50 in experiment [7], in experiment [8] and in experiment [9] was above 30 µM in each case.
